Measurements: ChEMBL document CHEMBL1697731, “Cheminformatics analysis of assertions mined from literature that describe drug-induced liver injury in different species” (Chem Res Toxicol, 2010)

Key:
[1] = test system: Hepatotoxicity; assay: Literature-mined compound from Fourches et al multi-species drug-induced liver injury (DILI) dataset, effect in humans; settings: human
[2] = test system: Hepatotoxicity; assay: Literature-mined compound from Fourches et al multi-species drug-induced liver injury (DILI) dataset, effect in rodents; settings: rodentia
[3] = test system: Hepatotoxicity; assay: Literature-mined compound from Fourches et al multi-species drug-induced liver injury (DILI) dataset, effect in non-rodents

SMILES | Hepatotoxicity [1] | Hepatotoxicity [2] | Hepatotoxicity [3] | Hepatotoxicity ([1]; Liver) | Hepatotoxicity ([2]; Liver) | Hepatotoxicity ([3]; Liver)
COC1=C2C[C@@H](C)C[C@H](OC)[C@H](O)[C@@H](C)/C=C(\C)[C@H](OC(N)=O)[C@@H](OC)/C=C\C=C(/C)C(=O)NC(=CC1=O)C2=O [GELDANAMYCIN] | drug-induced liver injury reported | no drug-induced liver injury reported | no drug-induced liver injury reported | – | – | –
Cc1ccc(C)c(OCCCC(C)(C)C(=O)O)c1 [GEMFIBROZIL] | drug-induced liver injury reported | drug-induced liver injury reported | no drug-induced liver injury reported | – | – | –
CN(C)c1ccc(C(=C2C=CC(=[N+](C)C)C=C2)c2ccc(N(C)C)cc2)cc1.[Cl-] [GENTIAN VIOLET] | no drug-induced liver injury reported | drug-induced liver injury reported | no drug-induced liver injury reported | – | – | –
CC1(C)CC(=O)N(CCCCN2CCN(c3ncccn3)CC2)C(=O)C1 [GEPIRONE] | drug-induced liver injury reported | no drug-induced liver injury reported | no drug-induced liver injury reported | – | – | –
C#C[C@]1(O)C=C[C@H]2[C@@H]3CCC4=CC(=O)CC[C@@H]4[C@H]3CC[C@@]21CC [GESTODENE] | drug-induced liver injury reported | no drug-induced liver injury reported | no drug-induced liver injury reported | – | – | –
O=C(OCC(O)CO)c1ccccc1Nc1ccnc2cc(Cl)ccc12 (centres undefined) [GLAFENINE] | – | – | – | drug-induced liver injury reported | no drug-induced liver injury reported | no drug-induced liver injury reported
Cc1ccc(S(=O)(=O)NC(=O)NN2CC3CCCC3C2)cc1 (centres undefined) [GLICLAZIDE] | drug-induced liver injury reported | no drug-induced liver injury reported | no drug-induced liver injury reported | – | – | –
N[C@H]1C(O)O[C@H](CO)[C@@H](O)[C@@H]1O (some centres undefined) [GLUCOSAMINE] | no drug-induced liver injury reported | drug-induced liver injury reported | no drug-induced liver injury reported | – | – | –
N[C@@H](CCC(=O)O)C(=O)O [GLUTAMIC ACID] | no drug-induced liver injury reported | drug-induced liver injury reported | no drug-induced liver injury reported | – | – | –
NC(=O)CC[C@H](N)C(=O)O [GLUTAMINE] | drug-induced liver injury reported | drug-induced liver injury reported | drug-induced liver injury reported | – | – | –
CCC1(c2ccccc2)CCC(=O)NC1=O (centres undefined) [GLUTETHIMIDE] | drug-induced liver injury reported | no drug-induced liver injury reported | no drug-induced liver injury reported | – | – | –
COc1ccc(Cl)cc1C(=O)NCCc1ccc(S(=O)(=O)NC(=O)NC2CCCCC2)cc1 [GLYBURIDE] | drug-induced liver injury reported | drug-induced liver injury reported | no drug-induced liver injury reported | – | – | –
OCC(O)CO [GLYCERIN] | drug-induced liver injury reported | drug-induced liver injury reported | drug-induced liver injury reported | – | – | –
Cc1cc2c(C(C)C)c(O)c(O)c(C=O)c2c(O)c1-c1c(C)cc2c(C(C)C)c(O)c(O)c(C=O)c2c1O [GOSSYPOL] | drug-induced liver injury reported | drug-induced liver injury reported | no drug-induced liver injury reported | – | – | –
COC1=CC(=O)C[C@@H](C)[C@]12Oc1c(Cl)c(OC)cc(OC)c1C2=O [GRISEOFULVIN] | drug-induced liver injury reported | drug-induced liver injury reported | no drug-induced liver injury reported | – | – | –
Cc1ccc(C(C)C)cc2c(C)ccc1-2 [GUAIAZULEN] | no drug-induced liver injury reported | drug-induced liver injury reported | no drug-induced liver injury reported | – | – | –
CC(=O)O.N=C(N)N/N=C/c1c(Cl)cccc1Cl [GUANABENZ ACETATE] | no drug-induced liver injury reported | drug-induced liver injury reported | no drug-induced liver injury reported | – | – | –
Cl.N=C(N)N [GUANIDINE HYDROCHLORIDE] | drug-induced liver injury reported | drug-induced liver injury reported | no drug-induced liver injury reported | – | – | –
CC1=C(CCC(=O)O)c2cc3nc(cc4[nH]c(cc5[nH]c(cc1n2)c(C)c5C(C)O)c(C)c4C(C)O)C(C)=C3CCC(=O)O (centres undefined) [HAEMAPORPHYRIN] | no drug-induced liver injury reported | drug-induced liver injury reported | no drug-induced liver injury reported | – | – | –

SMILES | Hepatotoxicity [1] | Hepatotoxicity [2] | Hepatotoxicity [3] | Hepatotoxicity ([1]; Liver) | Hepatotoxicity ([2]; Liver) | Hepatotoxicity ([3]; Liver)
O=C(CC1NCCCC1O)Cn1cnc2cc(Br)c(Cl)cc2c1=O (centres undefined) [HALOFUGINONE] | drug-induced liver injury reported | drug-induced liver injury reported | no drug-induced liver injury reported | – | – | –
O=C(CCCN1CCC(O)(c2ccc(Cl)cc2)CC1)c1ccc(F)cc1 [HALOPERIDOL] | drug-induced liver injury reported | drug-induced liver injury reported | drug-induced liver injury reported | – | – | –
FC(F)(F)C(Cl)Br (centres undefined) [HALOTHANE] | drug-induced liver injury reported | drug-induced liver injury reported | drug-induced liver injury reported | – | – | –
COc1ccc([C@@H]2CC(=O)c3c(O)cc(O[C@@H]4O[C@H](CO[C@@H]5O[C@@H](C)[C@H](O)[C@@H](O)[C@H]5O)[C@@H](O)[C@H](O)[C@H]4O)cc3O2)cc1O [HESPERIDIN] | drug-induced liver injury reported | drug-induced liver injury reported | no drug-induced liver injury reported | – | – | –
Oc1c(Cl)cc(Cl)c(Cl)c1Cc1c(O)c(Cl)cc(Cl)c1Cl [HEXACHLOROPHENE] | no drug-induced liver injury reported | drug-induced liver injury reported | no drug-induced liver injury reported | – | – | –
CC[C@H](c1ccc(O)cc1)[C@@H](CC)c1ccc(O)cc1 [HEXESTROL] | no drug-induced liver injury reported | drug-induced liver injury reported | no drug-induced liver injury reported | – | – | –
CCCCC(CC)CN1CN(CC(CC)CCCC)CC(C)(N)C1 (centres undefined) [HEXETIDINE] | no drug-induced liver injury reported | drug-induced liver injury reported | no drug-induced liver injury reported | – | – | –
CN1C(=O)NC(=O)C(C)(C2=CCCCC2)C1=O (centres undefined) [HEXOBARBITAL] | no drug-induced liver injury reported | drug-induced liver injury reported | no drug-induced liver injury reported | – | – | –
Cl.Cl.NCCc1c[nH]cn1 [HISTAMINE DIHYDROCHLORIDE] | – | – | – | no drug-induced liver injury reported | drug-induced liver injury reported | no drug-induced liver injury reported
NNc1nncc2ccccc12 [HYDRALAZINE] | – | – | – | drug-induced liver injury reported | drug-induced liver injury reported | drug-induced liver injury reported
NS(=O)(=O)c1cc2c(cc1Cl)NCNS2(=O)=O [HYDROCHLOROTHIAZIDE] | drug-induced liver injury reported | no drug-induced liver injury reported | no drug-induced liver injury reported | – | – | –
CC(=O)OCC(=O)[C@@]1(O)CC[C@H]2[C@@H]3CCC4=CC(=O)CC[C@]4(C)[C@H]3[C@@H](O)C[C@@]21C [HYDROCORTISONE ACETATE] | no drug-induced liver injury reported | drug-induced liver injury reported | no drug-induced liver injury reported | – | – | –
C[C@]12CCC(=O)C=C1CC[C@@H]1[C@@H]2[C@@H](O)C[C@@]2(C)[C@H]1CC[C@]2(O)C(=O)CO [HYDROCORTISONE] | drug-induced liver injury reported | drug-induced liver injury reported | drug-induced liver injury reported | – | – | –
Oc1ccc(O)cc1 [HYDROQUINONE] | – | – | – | drug-induced liver injury reported | drug-induced liver injury reported | no drug-induced liver injury reported
NC(=O)NO [HYDROXYUREA] | drug-induced liver injury reported | drug-induced liver injury reported | no drug-induced liver injury reported | – | – | –
OCCOCCN1CCN(C(c2ccccc2)c2ccc(Cl)cc2)CC1 (centres undefined) [HYDROXYZINE] | drug-induced liver injury reported | no drug-induced liver injury reported | no drug-induced liver injury reported | – | – | –
CNC(=O)[C@H]1O[C@@H](n2cnc3c(NCc4cccc(I)c4)ncnc32)[C@H](O)[C@@H]1O [IB-MECA] | no drug-induced liver injury reported | drug-induced liver injury reported | no drug-induced liver injury reported | – | – | –
CC(C)Cc1ccc(C(C)C(=O)O)cc1 (centres undefined) [IBUPROFEN] | drug-induced liver injury reported | drug-induced liver injury reported | no drug-induced liver injury reported | – | – | –
CC/C=C\C/C=C\C/C=C\C/C=C\C/C=C\CCCC(=O)O [ICOSAPENT] | drug-induced liver injury reported | drug-induced liver injury reported | no drug-induced liver injury reported | – | – | –
